From patent US20120053144A1, “Cobalamin Taxane Bioconjugates For Treating Eye Disease” (Osiris Therapeutics, Inc., priority 2009, published 2012)

Tested on: choroidal neovascularization
Assay: Choroidal neovascularization model (argon laser scarring, fluorescein leakage scoring)
Assay type: in vivo, rats
Conditions: rat eye, laser-induced, treated on day 0
Experimental: Groups of rats were neovascularized by argon laser scarring on an eye. At the same time (day 0), the eye was immediately treated with the cobalamin-paclitaxel bioconjugate (CT-101) prepared in accordance with Example 1. Two concentrations, one higher and one lower, were tested. The treatment regimen also included a vehicle and KENACORT® RETARD (4% triamcinolone acetonide), as a positive control. The treated eyes were evaluated for inhibition of neovascularization on days 7, 14 and 21 by infusing the eye with fluorescein and scoring the leakage from each spot. The leakage of fluorescein on the photographies of the angiograms from each spot were evaluated by two examiners using an HRA (Heidelberg's Retinal Angiograph) in a masked fashion and graded as follows:
Score 1: slightly stained;
Score 2: moderate stained;
Score 3: strongly stained.

B12-5′-OCONH(CH2)5CO-Phe-Lys-PABC-7-Taxol [CT-101]
inhibition of neovascularization (fluorescein leakage score) (Day 14, both concentrations (higher and lower)): measurable effect
inhibition of neovascularization (fluorescein leakage score) (effect over 7 days relative to vehicle and positive control): marked angiogenic effect relative to the vehicle over 7 days, and was comparable in effect to the positive control
